{"source": "ChEMBL document CHEMBL1671673", "about": "“In vitro activity of colistin (polymyxin E) against 3,480 isolates of gram-negative bacilli obtained from patients in Canadian hospitals in the CANWARD study, 2007-2008” (Antimicrob Agents Chemother, 2009)", "assay_type_in_all_cases": "functional, organism-based", "set-up_in_all_cases": "scale not given: the % may be the effect or the level left", "key": {"[1]": {"system": "Pseudomonas aeruginosa", "test": "Antibacterial activity against Gentamicin-resistant Pseudomonas aeruginosa assessed as susceptible isolates at minimum inhibitory concentration of 8 ug/ml by CLSI broth microdilution method"}, "[2]": {"system": "Pseudomonas aeruginosa", "test": "Antibacterial activity against Levofloxacin-resistant Pseudomonas aeruginosa assessed as susceptible isolates at minimum inhibitory concentration of 0.5 ug/ml by CLSI broth microdilution method"}, "[3]": {"system": "Pseudomonas aeruginosa", "test": "Antibacterial activity against Meropenem-resistant Pseudomonas aeruginosa assessed as susceptible isolates at minimum inhibitory concentration of 1 ug/ml by CLSI broth microdilution method"}, "[4]": {"system": "Pseudomonas aeruginosa", "test": "Antibacterial activity against Piperacillin-resistant Pseudomonas aeruginosa assessed as susceptible isolates at minimum inhibitory concentration of 4 ug/ml by CLSI broth microdilution method"}, "[5]": {"system": "Pseudomonas aeruginosa", "test": "Antibacterial activity against MDR4 Pseudomonas aeruginosa assessed as susceptible isolates at minimum inhibitory concentration of 0.5 ug/ml by CLSI broth microdilution method"}, "[6]": {"system": "Pseudomonas aeruginosa", "test": "Antibacterial activity against MDR Pseudomonas aeruginosa assessed as susceptible isolates at minimum inhibitory concentration of 0.5 ug/ml by CLSI broth microdilution method"}, "[7]": {"system": "Pseudomonas aeruginosa", "test": "Antibacterial activity against MDR Pseudomonas aeruginosa assessed as susceptible isolates at minimum inhibitory concentration of 1 ug/ml by CLSI broth microdilution method"}, "[8]": {"system": "Serratia marcescens", "test": "Antibacterial activity against Serratia marcescens assessed as susceptible isolates at minimum inhibitory concentration of 4 ug/ml by CLSI broth microdilution method"}, "[9]": {"system": "Serratia marcescens", "test": "Antibacterial activity against Serratia marcescens assessed as susceptible isolates at minimum inhibitory concentration of 0.5 ug/ml by CLSI broth microdilution method"}, "[10]": {"system": "Serratia marcescens", "test": "Antibacterial activity against Serratia marcescens assessed as susceptible isolates at minimum inhibitory concentration of 0.25 ug/ml by CLSI broth microdilution method"}, "[11]": {"system": "Proteus mirabilis", "test": "Antibacterial activity against Proteus mirabilis assessed as susceptible isolates at minimum inhibitory concentration of 4 ug/ml by CLSI broth microdilution method"}, "[12]": {"system": "Proteus mirabilis", "test": "Antibacterial activity against Proteus mirabilis assessed as susceptible isolates at minimum inhibitory concentration of 2 ug/ml by CLSI broth microdilution method"}, "[13]": {"system": "Proteus mirabilis", "test": "Antibacterial activity against Proteus mirabilis assessed as susceptible isolates at minimum inhibitory concentration of 1 ug/ml by CLSI broth microdilution method"}, "[14]": {"system": "Proteus mirabilis", "test": "Antibacterial activity against Proteus mirabilis assessed as susceptible isolates at minimum inhibitory concentration of 0.25 ug/ml by CLSI broth microdilution method"}, "[15]": {"system": "Enterobacter cloacae", "test": "Antibacterial activity against Enterobacter cloacae assessed as susceptible isolates at minimum inhibitory concentration of 8 ug/ml by CLSI broth microdilution method"}, "[16]": {"system": "Enterobacter cloacae", "test": "Antibacterial activity against Enterobacter cloacae assessed as susceptible isolates at minimum inhibitory concentration of 1 ug/ml by CLSI broth microdilution method"}, "[17]": {"system": "Enterobacter cloacae", "test": "Antibacterial activity against Enterobacter cloacae assessed as susceptible isolates at minimum inhibitory concentration of 0.25 ug/ml by CLSI broth microdilution method"}, "[18]": {"system": "Enterobacter cloacae", "test": "Antibacterial activity against Enterobacter cloacae assessed as susceptible isolates at minimum inhibitory concentration of <=0.06 ug/ml by CLSI broth microdilution method"}, "[19]": {"system": "Klebsiella pneumoniae", "test": "Antibacterial activity against ESBL-producing Klebsiella pneumoniae assessed as susceptible isolates at minimum inhibitory concentration of >16 ug/ml by CLSI broth microdilution method"}, "[20]": {"system": "Klebsiella pneumoniae", "test": "Antibacterial activity against ESBL-producing Klebsiella pneumoniae assessed as susceptible isolates at minimum inhibitory concentration of 1 ug/ml by CLSI broth microdilution method"}, "[21]": {"system": "Klebsiella pneumoniae", "test": "Antibacterial activity against ESBL-producing Klebsiella pneumoniae assessed as susceptible isolates at minimum inhibitory concentration of 0.25 ug/ml by CLSI broth microdilution method"}, "[22]": {"system": "Pseudomonas aeruginosa", "test": "Antibacterial activity against Pseudomonas aeruginosa assessed as susceptible isolates at minimum inhibitory concentration of 2 ug/ml by CLSI broth microdilution method"}, "[23]": {"system": "Pseudomonas aeruginosa", "test": "Antibacterial activity against Pseudomonas aeruginosa assessed as susceptible isolates at minimum inhibitory concentration of 0.25 ug/ml by CLSI broth microdilution method"}, "[24]": {"system": "Pseudomonas aeruginosa", "test": "Antibacterial activity against Pseudomonas aeruginosa assessed as susceptible isolates at minimum inhibitory concentration of 0.12 ug/ml by CLSI broth microdilution method"}, "[25]": {"system": "Escherichia coli", "test": "Antibacterial activity against ESBL-producing Escherichia coli assessed as susceptible isolates at minimum inhibitory concentration of >16 ug/ml by CLSI broth microdilution method"}, "[26]": {"system": "Escherichia coli", "test": "Antibacterial activity against ESBL-producing Escherichia coli assessed as susceptible isolates at minimum inhibitory concentration of 8 ug/ml by CLSI broth microdilution method"}, "[27]": {"system": "Escherichia coli", "test": "Antibacterial activity against ESBL-producing Escherichia coli assessed as susceptible isolates at minimum inhibitory concentration of 1 ug/ml by CLSI broth microdilution method"}, "[28]": {"system": "Klebsiella oxytoca", "test": "Antibacterial activity against Klebsiella oxytoca assessed as susceptible isolates at minimum inhibitory concentration of 16 ug/ml by CLSI broth microdilution method"}, "[29]": {"system": "Stenotrophomonas maltophilia", "test": "Antibacterial activity against Stenotrophomonas maltophilia assessed as susceptible isolates at minimum inhibitory concentration of 0.12 ug/ml by CLSI broth microdilution method"}, "[30]": {"system": "Stenotrophomonas maltophilia", "test": "Antibacterial activity against Stenotrophomonas maltophilia assessed as susceptible isolates at minimum inhibitory concentration of 0.5 ug/ml by CLSI broth microdilution method"}, "[31]": {"system": "Stenotrophomonas maltophilia", "test": "Antibacterial activity against Stenotrophomonas maltophilia assessed as susceptible isolates at minimum inhibitory concentration of 4 ug/ml by CLSI broth microdilution method"}, "[32]": {"system": "Stenotrophomonas maltophilia", "test": "Antibacterial activity against Stenotrophomonas maltophilia assessed as susceptible isolates at minimum inhibitory concentration of 16 ug/ml by CLSI broth microdilution method"}, "[33]": {"system": "Klebsiella aerogenes", "test": "Antibacterial activity against Enterobacter aerogenes assessed as susceptible isolates at minimum inhibitory concentration of 2 ug/ml by CLSI broth microdilution method"}, "[34]": {"system": "Acinetobacter baumannii", "test": "Antibacterial activity against Acinetobacter baumannii assessed as susceptible isolates at minimum inhibitory concentration of 8 ug/ml by CLSI broth microdilution method"}, "[35]": {"system": "Acinetobacter baumannii", "test": "Antibacterial activity against Acinetobacter baumannii assessed as susceptible isolates at minimum inhibitory concentration of >16 ug/ml by CLSI broth microdilution method"}, "[36]": {"system": "Pseudomonas aeruginosa", "test": "Antibacterial activity against Amikacin-resistant Pseudomonas aeruginosa assessed as susceptible isolates at minimum inhibitory concentration of 1 ug/ml by CLSI broth microdilution method"}, "[37]": {"system": "Pseudomonas aeruginosa", "test": "Antibacterial activity against Amikacin-resistant Pseudomonas aeruginosa assessed as susceptible isolates at minimum inhibitory concentration of 4 ug/ml by CLSI broth microdilution method"}, "[38]": {"system": "Pseudomonas aeruginosa", "test": "Antibacterial activity against Ciprofloxacin-resistant Pseudomonas aeruginosa assessed as susceptible isolates at minimum inhibitory concentration of 16 ug/ml by CLSI broth microdilution method"}, "[39]": {"system": "Pseudomonas aeruginosa", "test": "Antibacterial activity against Gentamicin-resistant Pseudomonas aeruginosa assessed as susceptible isolates at minimum inhibitory concentration of 4 ug/ml by CLSI broth microdilution method"}, "[40]": {"system": "Serratia marcescens", "test": "Antibacterial activity against Serratia marcescens assessed as susceptible isolates at minimum inhibitory concentration of 16 ug/ml by CLSI broth microdilution method"}}}
{"sequence": "COLISTIN", "values": [{"measurement": "Activity", "setting": "[1]", "result": 99, "unit": "%"}, {"measurement": "Activity", "setting": "[2]", "result": 1.8, "unit": "%"}, {"measurement": "Activity", "setting": "[3]", "result": 33.3, "unit": "%"}, {"measurement": "Activity", "setting": "[4]", "result": 100, "unit": "%"}, {"measurement": "Activity", "setting": "[5]", "result": 7.7, "unit": "%"}, {"measurement": "Activity", "setting": "[6]", "result": 5.3, "unit": "%"}, {"measurement": "Activity", "setting": "[7]", "result": 38.2, "unit": "%"}, {"measurement": "Activity", "setting": "[8]", "result": 1.9, "unit": "%"}, {"measurement": "Activity", "setting": "[9]", "result": 0, "unit": "%"}, {"measurement": "Activity", "setting": "[10]", "result": 0, "unit": "%"}, {"measurement": "Activity", "setting": "[11]", "result": 0, "unit": "%"}, {"measurement": "Activity", "setting": "[12]", "result": 0, "unit": "%"}, {"measurement": "Activity", "setting": "[13]", "result": 0, "unit": "%"}, {"measurement": "Activity", "setting": "[14]", "result": 0, "unit": "%"}, {"measurement": "Activity", "setting": "[15]", "result": 85.5, "unit": "%"}, {"measurement": "Activity", "setting": "[16]", "result": 82.3, "unit": "%"}, {"measurement": "Activity", "setting": "[17]", "result": 14, "unit": "%"}, {"measurement": "Activity", "setting": "[18]", "result": 0, "unit": "%"}, {"measurement": "Activity", "setting": "[19]", "result": 100, "unit": "%"}, {"measurement": "Activity", "setting": "[20]", "result": 95, "unit": "%"}, {"measurement": "Activity", "setting": "[21]", "result": 10.5, "unit": "%"}, {"measurement": "Activity", "setting": "[22]", "result": 91.6, "unit": "%"}, {"measurement": "Activity", "setting": "[23]", "result": 0, "unit": "%"}, {"measurement": "Activity", "setting": "[24]", "result": 0, "unit": "%"}, {"measurement": "Activity", "setting": "[25]", "result": 100, "unit": "%"}, {"measurement": "Activity", "setting": "[26]", "result": 99.5, "unit": "%"}, {"measurement": "Activity", "setting": "[27]", "result": 97.3, "unit": "%"}, {"measurement": "Activity", "setting": "[28]", "result": 98.1, "unit": "%"}, {"measurement": "Activity", "setting": "[29]", "result": 0, "unit": "%"}, {"measurement": "Activity", "setting": "[30]", "result": 4.8, "unit": "%"}, {"measurement": "Activity", "setting": "[31]", "result": 33.7, "unit": "%"}, {"measurement": "Activity", "setting": "[32]", "result": 56.6, "unit": "%"}, {"measurement": "Activity", "setting": "[33]", "result": 97.3, "unit": "%"}, {"measurement": "Activity", "setting": "[34]", "result": 93.5, "unit": "%"}, {"measurement": "Activity", "setting": "[35]", "result": 100, "unit": "%"}, {"measurement": "Activity", "setting": "[36]", "result": 42.1, "unit": "%"}, {"measurement": "Activity", "setting": "[37]", "result": 97.4, "unit": "%"}, {"measurement": "Activity", "setting": "[38]", "result": 98.6, "unit": "%"}, {"measurement": "Activity", "setting": "[39]", "result": 99, "unit": "%"}, {"measurement": "Activity", "setting": "[40]", "result": 1.9, "unit": "%"}]}
